Experimental data reported in patent US6706698B2, “α-Substituted β-aminoethyl phosphonate derivatives” (Ilex Products, Inc., priority 2000, dated 2004).

Columns and labels:
[1] = test system: apo (a); test: apo (a) secretion in primary cultures of Cynomolgus hepatocytes (ELISA); assay type: cell-based, Cynomolgus monkey; details: Macaca fascicularis, Hepatocyte, 6-24 hours, vs ethanol control, read-out: change in apo (a) secretion in culture medium, percentage of control
Experimental: The compounds of formula (I) were assayed for being able to effectively lower the production of apo (a) in primary cultures of Cynomolgus hepatocytes.
Hepatocytes were isolated from livers of male adult Cynomolgus monkeys by the two-step collagenase perfusion method according to C. Guguen-Guillouzo and A. Guillouzo “Methods for preparation of adult and fetal hepatocytes” p.1-12 in “Isolated and Cultured Hepatocytes”, les editions Inserm Paris and John Libbey Eurotext London (1986).
The viability of cells was determined by Trypan blue staining. The cells were then seeded at a density of 1.5-2.105 viable cells per 2 cm^2 in 24 well tissue culture plates in a volume of 500 μl per well of Williams E tissue culture medium containing 10% fetal calf serum. Cells were incubated for 6-24 hours at 37° C. in a CO2 incubator (5% CO2) in the presence of 20 μM of the test compounds dissolved in ethanol. Four wells were used for each compound. Nicotinic acid and steroid hormones were used as references to validate the assay system since they are known to decrease apo (a) in man. Control cells were incubated in the presence of ethanol only.
The amount of apo (a) secreted in culture medium was assayed directly by ELISA using a commercially available kit. Changes in apo (a) concentration in culture medium are given as the percentage of value measured for the control plates.

| Compound | melting point [°C] | inhibition at 20 µM [1] [%] |
| --- | --- | --- |
| CCOP(=O)(OCC)C(CNc1cccnc1)c1cc(OC)c(O)c(OC)c1 (stereo not shown) | 152 to 154 |  |
| CCOP(=O)(OCC)C(CNc1nccs1)c1cc(C)c(O)c(OC)c1 (stereo not shown) | 85 to 87 |  |
| COc1cc(C(CNc2cccnc2)P(=O)(OC(C)C)OC(C)C)cc(OC)c1O (stereo not drawn) [Compound 33, diisopropyl α-(3,5-dimethoxy-4-hydroxyphenyl)-β-[N-(3-pyridyl)-amino]-ethylphosphonate] | 156 to 158 | 19 to 55 |
| COc1cc(C(CNc2cccnc2)P(=O)(OC(C)C)OC(C)C)cc(C)c1O (stereo not drawn) [Compound 35, diisopropyl α-(4-hydroxy-3-methoxy-5-methylphenyl)-β-[N-(3-pyridyl)amino]-ethylphosphonate] |  | 19 to 55 |
| CCOP(=O)(OCC)C(CNc1cnccn1)c1cc(OC)c(O)c(OC)c1 (stereo not drawn) [Compound 42, diethyl α-(3,5-dimethoxy-4-hydroxyphenyl)-β-[N-(pyrazinyl)-amino]-ethylphosphonate] | 147 to 148 | 19 to 55 |
| COc1cc(C(CNc2cnccn2)P(=O)(OC(C)C)OC(C)C)cc(OC)c1O (stereo not drawn) [Compound 43, diisopropyl α-(3,5-dimethoxy-4-hydroxyphenyl)-β-[N-(pyrazinyl)-amino]-ethylphosphonate] | 169 to 171 | 19 to 55 |
| CCOP(=O)(OCC)C(CNc1cnccn1)c1cc(C)c(O)c(OC)c1 (stereo not drawn) [Compound 44, diethyl α-(4-hydroxy-3-methoxy-5-methylphenyl)-β-[N-(pyrazinyl)-amino]-ethylphosphonate] |  | 19 to 55 |
| Cc1cc(C(CNc2cccnc2)P(=O)(OC(C)C)OC(C)C)cc(C)c1O (stereo not drawn) [Compound 47, diisopropyl α-(3,5-dimethyl-4-hydroxyphenyl)-β-[N-(3-pyridyl)-amino]-ethylphosphonate] |  | 19 to 55 |
| CCOP(=O)(OCC)C(CNc1ncccn1)c1cc(C)c(O)c(OC)c1 (stereo not drawn) [Compound 53, diethyl α-(4-hydroxy-3-methoxy-5-methylphenyl)-β-[N-(2-pyrimidinyl)-amino]-ethylphosphonate] | 133 to 136 | 19 to 55 |
| CCOc1cc(C(CNc2cccnc2)P(=O)(OCC)OCC)cc(C)c1O (stereo not drawn) [Compound 55, diethyl α-(3-ethoxy-4-hydroxy-5-methylphenyl)-β-[N-(3-pyridyl)-amino]-ethylphosphonate] | 155 to 156 | 19 to 55 |
| CCOP(=O)(OCC)C(CNc1nc2ccccc2s1)c1cc(C)c(O)c(OC)c1 (stereo not drawn) [Compound 81, diethyl α-(4-hydroxy-3-methoxy-5-methylphenyl)-β-[N-(2-benzothiazolyl)-amino]-ethylphosphonate] |  | 19 to 55 |
| CCOP(=O)(OCC)C(CNc1ccon1)c1cc(C)c(O)c(OC)c1 (stereo not drawn) [Compound 87, diethyl α-(4-hydroxy-3-methoxy-5-methylphenyl)-β-[N-(3-isoxazolyl)-amino]-ethylphosphonate] |  | 19 to 55 |
| CCOP(=O)(OCC)C(CNc1cnccn1)c1cc(C)c(O)c(C)c1 (stereo not drawn) [Example 25, Diethyl α-(3,5-dimethyl-4-hydroxyphenyl)-β-[N-(pyrazinyl)-amino]-ethylphosphonate] |  | 19 to 55 |
| CCOP(=O)(OCC)C(CNc1cnccn1)c1cc(C)c(O)c(C(C)(C)C)c1 (stereo not drawn) [Example 26, Diethyl α-(3-tert-butyl-4-hydroxy-5-methylphenyl)-β-[N-(pyrazinyl)-amino]-ethylphosphonate] |  | 19 to 55 |
